Some test systems named below: UO-31 renal; NCI-H522 lung; SF-539 CNS; HCT-15 colon; SN12C renal; SK-MEL-28 melanoma; LOX IMVI melanoma; A549 NSCLC; CCRF-CEM leukemia; MALME-3M melanoma; HOP-92 NSCLC; HL-60(TB) leukemia.
What all share (test): NCI anticancer screen, dose series, 48 h

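Five concentrations, 48 hours, 96-well plates. TGI: total growth inhibition.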 Some results are limits rather than exact numbers.

Turning to `C[C@@H]1CC[C@@H]2[C@@H](C1)O[C@@H]([C@@H](C)OCc1ccccc1)SC2(C)C`, the TGI in the assay with UO-31 renal is 30.6 µM; with NCI-H522 lung it was 31.1 µM; in the assay on SF-539 CNS it was 33.6 µM; with HCT-15 colon it was 36.8 µM; with SN12C renal, 32.3 µM; in the assay on SK-MEL-28 melanoma it was 60.4 µM. For the same compound, the TGI in the assay with LOX IMVI melanoma was 41.9 µM; in the assay with A549 NSCLC, 83.4 µM; in the assay with CCRF-CEM leukemia, 34.5 µM; in the assay with MALME-3M melanoma, 37.9 µM.
Take `COC(=O)c1c(O)ccc2c1c1cc3ccccc3c(O)c1n2CCc1ccc(OC)c(OC)c1`: the TGI was above 100 µM in the assay on UO-31 renal; above 100 µM with NCI-H522 lung; above 100 µM with SF-539 CNS; above 100 µM in the assay on HCT-15 colon; above 100 µM with SN12C renal; 91.1 µM in the assay with SK-MEL-28 melanoma. In addition, the TGI in the assay on HOP-92 NSCLC, in the assay with A549 NSCLC, in the assay with CCRF-CEM leukemia, in the assay on MALME-3M melanoma and in the assay with HL-60(TB) leukemia was above 100 µM each time.
Turning to `CCc1n[nH]c(=O)n1/N=C(\C)c1ccccc1`, the TGI in the assay with UO-31 renal, with NCI-H522 lung, in the assay with SF-539 CNS, in the assay with HCT-15 colon, in the assay on SN12C renal and in the assay on SK-MEL-28 melanoma was above 100 µM in each case. Also, the TGI in the assay with LOX IMVI melanoma, in the assay on A549 NSCLC, in the assay on CCRF-CEM leukemia, in the assay with MALME-3M melanoma and with HL-60(TB) leukemia was above 100 µM each time.
`O=C(Nc1ccccc1)Oc1ccc(C(=S)Nc2ccc(Br)cc2)cc1`: the TGI in the assay on NCI-H522 lung was determined as 29.5 µM; in the assay on SF-539 CNS it was 53 µM; in the assay with HCT-15 colon it was 34.5 µM; in the assay on SK-MEL-28 melanoma it was 46.4 µM; in the assay on LOX IMVI melanoma, 24.8 µM; in the assay on CCRF-CEM leukemia it was 28.5 µM. Also, the TGI in the assay with MALME-3M melanoma turned out to be 65.1 µM; with HL-60(TB) leukemia, 30.3 µM.
`CC(Oc1ccc(Cl)cc1Cl)C(=O)NN1C(=O)CC(=O)N(c2ccccc2)C1=S` (configuration not stated): the TGI in the assay on UO-31 renal, in the assay on NCI-H522 lung, in the assay on SF-539 CNS, in the assay with HCT-15 colon, in the assay with SN12C renal and in the assay with SK-MEL-28 melanoma was above 100 µM in each case. Further, the TGI with LOX IMVI melanoma was above 100 µM; with HOP-92 NSCLC, 84 µM; in the assay on A549 NSCLC it was above 100 µM; in the assay with MALME-3M melanoma, above 100 µM; with HL-60(TB) leukemia, 5.73 µM.
`CN(CCc1ccccn1)c1ccc2c(c1)C(=O)c1ccccc1-2`: the TGI with UO-31 renal, in the assay on NCI-H522 lung, in the assay with HCT-15 colon, with SN12C renal, with SK-MEL-28 melanoma and with LOX IMVI melanoma was above 100 µM in each case. Further, the TGI in the assay on HOP-92 NSCLC, with A549 NSCLC, in the assay with CCRF-CEM leukemia and with MALME-3M melanoma was above 100 µM each time.
Turning to `CCCCCCCCCCCCCCCc1nc(=S)[nH][nH]1`, the TGI was above 100 µM in the assay on UO-31 renal; 68.2 µM with NCI-H522 lung; above 100 µM with SF-539 CNS; above 100 µM with HCT-15 colon; above 100 µM with SN12C renal; above 100 µM in the assay with SK-MEL-28 melanoma. Moreover, the TGI with LOX IMVI melanoma, in the assay on CCRF-CEM leukemia, in the assay on MALME-3M melanoma and with HL-60(TB) leukemia was above 100 µM each time.
Consider `COc1ccc2nc3cc(Cl)ccc3c(NCCCN3CCN(CCCNc4ccc5nnn6c7ccccc7c(=O)c4c56)CC3)c2c1`, for which the TGI with UO-31 renal was above 25 µM; in the assay on NCI-H522 lung, above 23.8 µM; with SF-539 CNS it was 8.14 µM; with HCT-15 colon, above 25 µM; with SN12C renal it was above 25 µM; in the assay with SK-MEL-28 melanoma it was above 25 µM. For the same compound, the TGI with LOX IMVI melanoma is above 25 µM; with HOP-92 NSCLC, above 25 µM; with A549 NSCLC, above 25 µM; in the assay on CCRF-CEM leukemia, above 25 µM; in the assay on HL-60(TB) leukemia, above 18.7 µM.
With `COc1cc(C2S/C(=C/c3ccccc3)C(=O)N2c2cccc(NC(C)=O)c2)cc(OC)c1OC` (configuration not stated), the TGI was above 100 µM in the assay with UO-31 renal; 47.1 µM in the assay on NCI-H522 lung; above 100 µM in the assay with HCT-15 colon; above 100 µM in the assay with SN12C renal; above 100 µM in the assay with SK-MEL-28 melanoma; 54.7 µM in the assay on LOX IMVI melanoma. Also, the TGI with HOP-92 NSCLC is 85.7 µM; in the assay with A549 NSCLC it was above 100 µM; in the assay with CCRF-CEM leukemia it was above 100 µM; with MALME-3M melanoma, 98.3 µM.
As to `O=C(O)c1cc2ccccc2c(N=Nc2ccc(S(=O)(=O)Nc3ncccn3)cc2)c1O`, the TGI in the assay with UO-31 renal, in the assay with NCI-H522 lung, in the assay with SF-539 CNS, with HCT-15 colon, in the assay on SK-MEL-28 melanoma and in the assay on HOP-92 NSCLC was above 100 µM throughout. The TGI in the assay on A549 NSCLC, with CCRF-CEM leukemia, in the assay on MALME-3M melanoma and in the assay on HL-60(TB) leukemia was above 100 µM each time.

Values taken from PubChem BioAssay (NCI).
